Results taken from patent US11130769B2 (Prelude Therapeutics Incorporated, priority 2018, dated 2021).
Read-outs that look alike come from different tables or passages of the source.

Assays:
MCL-1 = MCL-1 (Homo sapiens (Human), UniProt Q07820); assay: Cell free Mcl-1:Bim affinity assay (fluorescence polarization competition); format: binding; conditions: 15 nM MCL-1, 5 nM FITC-Bim, 1 hour at room temperature, read-out: BIM_Ki
In short: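 Fluorescence polarization competition: 10-point 3-fold compound dilutions displaced 5 nM FITC-Bim from 15 nM MCL-1 over 1 h at room temperature. Ki was derived from the fitted IC50 using the Nikolovska-Coleska equation, with percent inhibition normalized to DMSO and positive controls.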

H929 cells = assay: Cell viability assay (H929 10 FBS); format: cell-based; conditions: Homo sapiens, NCI-H929, 24 hours, read-out: H929_10FBS IC50
In short: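 ATP-based luminescence (CellTiter-Glo or ATPlite 1 Step, 30-60 min at RT) gauged viability of H929 myeloma cells after 24 h compound treatment at 37 °C. Cells plated at 4000 per well in 10% FBS RPMI 1640 supplemented with pyruvate, HEPES and glucose.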

MCL-1, sequence (Q07820 whole entry): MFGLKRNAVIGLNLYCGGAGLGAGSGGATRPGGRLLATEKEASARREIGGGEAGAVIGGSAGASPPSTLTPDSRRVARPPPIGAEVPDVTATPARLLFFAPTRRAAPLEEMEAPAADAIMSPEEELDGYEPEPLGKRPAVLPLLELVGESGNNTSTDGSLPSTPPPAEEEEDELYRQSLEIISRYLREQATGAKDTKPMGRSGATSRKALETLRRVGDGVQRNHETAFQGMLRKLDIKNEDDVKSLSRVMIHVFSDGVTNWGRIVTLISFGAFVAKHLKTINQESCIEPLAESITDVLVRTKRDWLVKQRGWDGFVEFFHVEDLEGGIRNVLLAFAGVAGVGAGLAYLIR

Ki (MCL-1; class symbols) [µM] | IC50 (H929 cells) [µM] | Ki (MCL-1; numeric values) [µM] | Structure (SMILES)
< 0.001 | < 0.5 |  | CN(C(=O)O[C@H]1/C=C/COC2(CCC2)C(=O)NS(=O)(=O)c2ccc3c(c2)N(C[C@@H]2CC[C@H]21)C[C@@]1(CCCc2cc(Cl)ccc21)CO3)C1CCOCC1 [Example 236, [(3R,6R,7S,8E,22S)-6′-Chloro-12,12-(1,3-propylene)-13,15,15-trioxo-spiro[11,20-dioxa-15-thia-1,14-diazatetracyclo[14.7.2.03,6.019,24]pentacosa-8,16,18,24-tetraene-22,1′-tetralin]-7-yl] N-methyl-N-tetrahydropyran-4-yl-carbamate]
 | > 1 | 0.0357 | CC(C)C(=O)NS(=O)(=O)c1ccc2c(c1)N(CC1CCC1)CC1(CCCc3cc(Cl)ccc31)CO2 (stereo not drawn) [Example 6, N-[6′-Chloro-5-(cyclobutylmethyl)spiro[2,4-dihydro-1,5-benzoxazepine-3,1′-tetralin]-7-yl]sulfonyl-2-methyl-propanamide]
0.001 to 0.1 | < 0.5 |  | CCN1C/C=C/[C@H](OC(=O)N2CCN(CCOC)CC2)[C@@H]2CC[C@H]2CN2C[C@@]3(CCCc4cc(Cl)ccc43)COc3ccc(cc32)S(=O)(=O)NC(=O)C1(C)C [Example 225, [(3R,6R,7S,8E,22S)-6′-Chloro-11-ethyl-12,12-dimethyl-13,15,15-trioxo-spiro[20-oxa-15-thia-1,11,14-triazatetracyclo[14.7.2.03,6.019,24]pentacosa-8,16,18,24-tetraene-22,1′-tetralin]-7-yl] 4-(2-methoxyethyl)piperazine-1-carboxylate]
< 0.001 | < 0.5 |  | CC1(C)OC/C=C/[C@H](OCCN2CCOCC2)[C@@H]2CC[C@H]2CN2C[C@@]3(CCCc4cc(Cl)ccc43)COc3ccc(cc32)S(=O)(=O)NC1=O [Example 270, (3R,6R,7S,8E,22S)-6′-Chloro-12,12-dimethyl-7-(2-morpholinoethoxy)-15,15-dioxo-spiro[11,20-dioxa-15-thia-1,14-diazatetracyclo[14.7.2.03,6.019,24]pentacosa-8,16,18,24-tetraene-22,1′-tetralin]-13-one]
< 0.001 | < 0.5 |  | CCOC1CN(C(=O)O[C@H]2/C=C/COC3(CCC3)C(=O)NS(=O)(=O)c3ccc4c(c3)N(C[C@@H]3CC[C@H]32)C[C@@]2(CCCc3cc(Cl)ccc32)CO4)C1 [Example 230, [(3R,6R,7S,8E,22S)-6′-Chloro-12,12-(1,3-propylene)-13,15,15-trioxo-spiro[11,20-dioxa-15-thia-1,14-diazatetracyclo[14.7.2.03,6.019,24]pentacosa-8,16(25),17,19(24)-tetraene-22,1′-tetralin]-7-yl]-N,N-1,3-(2-ethoxy)propylene carbamate]
0.001 to 0.1 | < 1 |  | CO[C@H]1/C=C/CN(C)C(C)(C)C(=O)NS(=O)(=O)c2ccc3c(c2)N(C[C@@H]2CC[C@H]21)C[C@@]1(CCCc2cc(Cl)ccc21)CO3 [Example 137, (3R,6R,7S,8E,22S)-6′-Chloro-7-methoxy-11,12,12-trimethyl-15,15-dioxo-spiro[20-oxa-15-thia-1,11,14-triazatetracyclo[14.7.2.03,6.019,24]pentacosa-8,16,18,24-tetraene-22,1′-tetralin]-13-one]
0.001 to 0.1 | > 1 |  | O=C1N[C@@H]2CCN(C2)C(=O)NS(=O)(=O)c2ccc3c(c2)N(C[C@@H]2CC[C@H]2CO1)C[C@@]1(CCCc2cc(Cl)ccc21)CO3 [Example 102, (3R,6R,11R,24S)-6′-Chloro-17,17-dioxo-spiro[8,22-dioxa-17-thia-1,10,14,16-tetrazapentacyclo[16.7.2.111,14.03,6.021,26]octacosa-18(27),19,21(26)-triene-24,1′-tetralin]-9,15-dione]
0.001 to 0.1 | > 1 |  | CO[C@@H]1/C=C/C[C@H](C)[C@@H](CC(=O)N(C)C)C(=O)NS(=O)(=O)c2ccc3c(c2)N(C[C@@H]2CC[C@H]21)C[C@@]1(CCCc2cc(Cl)ccc21)CO3 [Example 91, 2-[(3R,6R,7R,8E,11S,12R,22S)-6′-Chloro-7-methoxy-11-methyl-13,15,15-trioxo-spiro[20-oxa-15-thia-1,14-diazatetracyclo[14.7.2.03,6.019,24]pentacosa-8,16,18,24-tetraene-22,1′-tetralin]-12-yl]-N,N-dimethyl-acetamide]
 | > 1 | 0.0218 | O=C(CCc1ccncc1)NS(=O)(=O)c1ccc2c(c1)N(CC1CCC1)C[C@@]1(CCCc3cc(Cl)ccc31)CO2 (racemic) [Example 20, 3-Pyridin-4-yl-N-[rac-(3S)-6′-chloro-5-(cyclobutylmethyl)spiro[2,4-dihydro-1,5-benzoxazepine-3,1′-tetralin]-7-yl]sulfonyl-propanamide]
< 0.001 | < 0.5 |  | CN1C/C=C/[C@H](OC(=O)NC2CCC2)[C@@H]2CC[C@H]2CN2C[C@@]3(CCCc4cc(Cl)ccc43)COc3ccc(cc32)S(=O)(=O)NC(=O)C1(C)C [Example 201, [(3R,6R,7S,8E,22S)-6′-Chloro-11,12,12-trimethyl-13,15,15-trioxo-spiro[20-oxa-15-thia-1,11,14-triazatetracyclo[14.7.2.03,6.019,24]pentacosa-8,16,18,24-tetraene-22,1′-tetralin]-7-yl] N-cyclobutylcarbamate]
0.001 to 0.1 | > 1 |  | CO[C@@H]1/C=C/CC[C@@H](C)C(=O)NS(=O)(=O)c2ccc3c(c2)N(C[C@@H]2CC[C@H]21)C[C@@]1(CCCc2cc(Cl)ccc21)CO3 [Example 72, (3R,6R,7R,8E,12R,22S)-6′-Chloro-7-methoxy-12-methyl-15,15-dioxo-spiro[20-oxa-15-thia-1,14-diazatetracyclo[14.7.2.03,6.019,24]pentacosa-8,16(25),17,19(24)-tetraene-22,1′-tetralin]-13-one]
< 0.001 | < 0.5 |  | [2H]C([2H])([2H])N(C(=O)O[C@H]1/C=C/COC(C)(C)C(=O)NS(=O)(=O)c2ccc3c(c2)N(C[C@@H]2CC[C@H]21)C[C@@]1(CCCc2cc(Cl)ccc21)CO3)C([2H])([2H])[2H] [Example 47, [(3R,6R,7S,8E,22S)-6′-Chloro-12,12-dimethyl-13,15,15-trioxo-spiro[11,20-dioxa-thia-1,14-diazatetracyclo[14.7.2.03,6.019,24]pentacosa-8,16,18,24-tetraene-22,1′-tetralin]-7-yl] N,N-bis(trideuteriomethyl)carbamate]
< 0.001 | < 0.5 |  | COCCN(C)C(=O)O[C@H]1/C=C/COC(C)(C)C(=O)NS(=O)(=O)c2ccc3c(c2)N(C[C@@H]2CC[C@H]21)C[C@@]1(CCCc2cc(Cl)ccc21)CO3 [Example 159, [(3R,6R,7S,8E,22S)-6′-Chloro-12,12-dimethyl-13,15,15-trioxo-spiro[11,20-dioxa-15-thia-1,14-diazatetracyclo[14.7.2.03,6.019,24]pentacosa-8,16,18,24-tetraene-22,1′-tetralin]-7-yl] N-(2-methoxyethyl)-N-methyl-carbamate]
< 0.001 | < 0.5 |  | CN(C(=O)O[C@H]1/C=C/COC(C)(C)C(=O)NS(=O)(=O)c2ccc3c(c2)N(C[C@@H]2CC[C@H]21)C[C@@]1(CCOc2cc(Cl)ccc21)CO3)C1CCOCC1 [Example 304, [(3R,6R,7S,8E,22S)-7′-Chloro-12,12-dimethyl-13,15,15-trioxo-spiro[11,20-dioxa-15-thia-1,14-diazatetracyclo[14.7.2.03,6.019,24]pentacosa-8,16,18,24-tetraene-22,4′-chromane]-7-yl] N-methyl-N-tetrahydropyran-4-yl-carbamate]
< 0.001 | > 1 |  | CN1C(=O)OC[C@@H]2CC[C@H]2CN2C[C@@]3(CCCc4cc(Cl)ccc43)COc3ccc(cc32)S(=O)(=O)NC(=O)N2CC[C@H]1C2 [Example 103, (3R,6R,11S,24S)-6′-Chloro-10-methyl-17,17-dioxo-spiro[8,22-dioxa-17λ^6-thia-1,10,14,16-tetrazapentacyclo[16.7.2.1^11,14.0{circumflex over (°)}3,6.0^21,26]octacosa-18,20,26-triene-24,1′-tetralin]-9,15-dione]
< 0.001 | < 0.5 |  | CC1(C)OC/C=C/[C@H](OCCN2CCC2)[C@@H]2CC[C@H]2CN2C[C@@]3(CCCc4cc(Cl)ccc43)COc3ccc(cc32)S(=O)(=O)NC1=O [Example 262, (3R,6R,7S,8E,22S)-7-[2-(Azetidin-1-yl)ethoxy]-6′-chloro-12,12-dimethyl-15,15-dioxo-spiro[11,20-dioxa-15-thia-1,14-diazatetracyclo[14.7.2.03,6.019,24]pentacosa-8,16,18,24-tetraene-22,1′-tetralin]-13-one]
< 0.001 | < 0.5 |  | C[C@H]1C(=O)NS(=O)(=O)c2ccc3c(c2)N(C[C@@H]2CC[C@H]2[C@@H](OC(=O)N(C)C)/C=C/CN1C)C[C@@]1(CCCc2cc(Cl)ccc21)CO3 [Example 147, [(3R,6R,7S,8E,12S,22S)-6′-Chloro-11,12-dimethyl-13,15,15-trioxo-spiro[20-oxa-15-thia-1,11,14-triazatetracyclo[14.7.2.03,6.019,24]pentacosa-8,16,18,24-tetraene-22,1′-tetralin]-7-yl] N,N-dimethylcarbamate]
0.001 to 0.1 | > 1 |  | CC(=O)N(C)[C@H]1/C=C/COC(C)(C)C(=O)NS(=O)(=O)c2ccc3c(c2)N(C[C@@H]2CC[C@H]21)C[C@@]1(CCCc2cc(Cl)ccc21)CO3 [Example 255, N-Methyl-N-[(3R,6R,7S,8E,22S)-6′-chloro-12,12-dimethyl-13,15,15-trioxo-spiro[11,20-dioxa-15-thia-1,14-diazatetracyclo[14.7.2.03,6.019,24]pentacosa-8,16(25),17,19(24)-tetraene-22,1′-tetralin]-7-yl]acetamide]
